# Measured values as given in PubChem BioAssay (NCI).
#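 Where inhibition never reached the appropriate level, the endpoint shown equals the highest concentration tested. Otherwise, values were interpolated linearly from a five-concentration, 48-hour dose response in 96-well plates. TGI is the concentration that stops growth completely.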
# Columns and labels:
# Test in all cases: growth of human tumour cells (NCI), 48 h
# [1] = tested on: NCI-H226 lung
# [2] = tested on: RXF 393 renal
# [3] = tested on: XF 498 CNS
# [4] = tested on: SN12C renal
# [5] = tested on: OVCAR-8 ovarian
# [6] = tested on: SNB-75 CNS
# [7] = tested on: UO-31 renal
# [8] = tested on: HCT-116 colon
# [9] = tested on: TK-10 renal
# [10] = tested on: SR leukemia
# [11] = tested on: A549 NSCLC
# [12] = tested on: EKVX NSCLC
# [13] = tested on: HOP-62 NSCLC
# [14] = tested on: KM20L2 colon
# [15] = tested on: HCC-2998 colon
# [16] = tested on: HT29 colon
# [17] = tested on: DLD-1 colon
# [18] = tested on: SNB-19 CNS
# [19] = tested on: UACC-257 melanoma
# [20] = tested on: IGROV1 ovarian
# [21] = tested on: SK-MEL-2 melanoma
# [22] = tested on: HL-60(TB) leukemia
# [23] = tested on: HS 578T breast
# [24] = tested on: SK-MEL-28 melanoma
# [25] = tested on: U251 CNS
# [26] = tested on: NCI-H522 lung
# [27] = tested on: 786-0 renal
# [28] = tested on: MDA-N
# [29] = tested on: SK-OV-3 ovarian
# [30] = tested on: CAKI-1 renal
# [31] = tested on: DU-145 prostate
# [32] = tested on: PC-3 prostate
# [33] = tested on: T-47D breast
# [34] = tested on: COLO 205 colon
# [35] = tested on: NCI/ADR-RES ovarian
# [36] = tested on: MOLT-4 leukemia
# [37] = tested on: K-562 leukemia
# [38] = tested on: NCI-H23 lung
# [39] = tested on: OVCAR-5 ovarian
# [40] = tested on: HOP-92 NSCLC
# [41] = tested on: HCT-15 colon
# [42] = tested on: OVCAR-3 ovarian
# [43] = tested on: SF-268 CNS
# [44] = tested on: SW-620 colon
# [45] = tested on: LOX IMVI melanoma
# [46] = tested on: SF-295 CNS
# [47] = tested on: MDA-MB-231 breast
# [48] = tested on: SF-539 CNS
# [49] = tested on: SK-MEL-5 melanoma
# [50] = tested on: UACC-62 melanoma
# [51] = tested on: ACHN renal
# [52] = tested on: RPMI-8226 leukemia
# [53] = tested on: MDA-MB-435
# [54] = tested on: BT-549 breast
# [55] = tested on: MCF7 breast
# [56] = tested on: NCI-H460 lung
# [57] = tested on: M14 melanoma
# [58] = tested on: CCRF-CEM leukemia
# [59] = tested on: OVCAR-4 ovarian
# [60] = tested on: MALME-3M melanoma
# [61] = tested on: KM12 colon
smiles,measurement,setting,value
COc1c(C)cc2c(c1O)C1C3[C@H]4SC[C@@]5(NCCC6=C5NC5C=CC=CC65)C(=O)OCC(c5c6c(c(C)c(OC(C)=O)c54)OCO6)N3[C@@H](O)C(C2)N1C (some centres undefined),TGI,[1],0.0859 µM
same,TGI,[2],< 0.01 µM
same,TGI,[3],< 0.01 µM
same,TGI,[4],1.3 µM
same,TGI,[5],< 0.01 µM
same,TGI,[6],< 0.01 µM
same,TGI,[7],0.0112 µM
same,TGI,[8],> 100 µM
same,TGI,[9],12.8 µM
same,TGI,[10],> 100 µM
same,TGI,[11],1.72 µM
same,TGI,[12],0.24 µM
same,TGI,[13],< 0.01 µM
same,TGI,[14],1.45 µM
same,TGI,[15],0.0109 µM
same,TGI,[16],10.3 µM
same,TGI,[17],1.92 µM
same,TGI,[18],3.64 µM
same,TGI,[19],< 0.01 µM
same,TGI,[20],1.85 µM
same,TGI,[21],< 0.01 µM
COc1cc(-c2nc3ccccn3c2/N=C/c2cc(Br)cc(Br)c2O)ccc1O,TGI,[22],46.4 µM
same,TGI,[1],70.9 µM
same,TGI,[23],83.8 µM
same,TGI,[24],40.7 µM
same,TGI,[25],31.9 µM
same,TGI,[26],58.2 µM
same,TGI,[27],35.5 µM
same,TGI,[28],59 µM
same,TGI,[29],59 µM
same,TGI,[2],> 100 µM
same,TGI,[4],40.6 µM
same,TGI,[30],93.3 µM
same,TGI,[5],61.8 µM
same,TGI,[31],84.3 µM
same,TGI,[6],66.6 µM
same,TGI,[7],30.6 µM
same,TGI,[32],65.8 µM
same,TGI,[33],74.3 µM
same,TGI,[34],74.3 µM
same,TGI,[8],34.7 µM
same,TGI,[9],67.8 µM
same,TGI,[10],62.7 µM
same,TGI,[35],64.5 µM
same,TGI,[11],> 100 µM
same,TGI,[36],73.7 µM
same,TGI,[12],54.5 µM
same,TGI,[37],> 100 µM
same,TGI,[38],67.9 µM
same,TGI,[39],> 100 µM
same,TGI,[13],52.5 µM
same,TGI,[40],50.8 µM
same,TGI,[41],44.8 µM
same,TGI,[15],> 100 µM
same,TGI,[42],39 µM
same,TGI,[43],39.7 µM
same,TGI,[16],57.1 µM
same,TGI,[44],71.2 µM
same,TGI,[45],64.9 µM
same,TGI,[46],50 µM
same,TGI,[47],36.3 µM
same,TGI,[18],75.6 µM
same,TGI,[48],90.2 µM
same,TGI,[49],72.4 µM
same,TGI,[19],75.2 µM
same,TGI,[50],72.4 µM
same,TGI,[51],> 100 µM
same,TGI,[20],49.9 µM
same,TGI,[52],> 100 µM
same,TGI,[53],72 µM
same,TGI,[54],53.3 µM
same,TGI,[55],53.8 µM
same,TGI,[56],> 100 µM
same,TGI,[57],38.5 µM
same,TGI,[58],45.6 µM
same,TGI,[59],61.3 µM
same,TGI,[60],57.8 µM
same,TGI,[61],67.2 µM
same,TGI,[21],42.2 µM
